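Each compound was tested at five concentrations against cells in 96-well plates for 48 hours. GI50 is the concentration that inhibits growth by half. The concentration for full growth arrest is given as TGI.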
How the values were obtained:
Test in all cases: DTP human tumour cell line panel, 48 h
A498 renal = system: A498 renal
MALME-3M melanoma = system: MALME-3M melanoma
HS 578T breast = system: HS 578T breast
MCF7 breast = system: MCF7 breast
NCI-H226 lung = system: NCI-H226 lung
HOP-62 NSCLC = system: HOP-62 NSCLC
T-47D breast = system: T-47D breast
PC-3 prostate = system: PC-3 prostate
HCT-15 colon = system: HCT-15 colon
OVCAR-4 ovarian = system: OVCAR-4 ovarian
SK-OV-3 ovarian = system: SK-OV-3 ovarian
RPMI-8226 leukemia = system: RPMI-8226 leukemia
DU-145 prostate = system: DU-145 prostate
786-0 renal = system: 786-0 renal
KM12 colon = system: KM12 colon
EKVX NSCLC = system: EKVX NSCLC
HCC-2998 colon = system: HCC-2998 colon
MOLT-4 leukemia = system: MOLT-4 leukemia
HT29 colon = system: HT29 colon
COLO 205 colon = system: COLO 205 colon
HCT-116 colon = system: HCT-116 colon
UO-31 renal = system: UO-31 renal
SF-268 CNS = system: SF-268 CNS
K-562 leukemia = system: K-562 leukemia
NCI-H522 lung = system: NCI-H522 lung
U251 CNS = system: U251 CNS
SN12C renal = system: SN12C renal
SK-MEL-5 melanoma = system: SK-MEL-5 melanoma
OVCAR-5 ovarian = system: OVCAR-5 ovarian
SF-539 CNS = system: SF-539 CNS
IGROV1 ovarian = system: IGROV1 ovarian
HOP-92 NSCLC = system: HOP-92 NSCLC
CAKI-1 renal = system: CAKI-1 renal
MDA-MB-231 breast = system: MDA-MB-231 breast
SW-620 colon = system: SW-620 colon
SNB-19 CNS = system: SNB-19 CNS
NCI-H460 lung = system: NCI-H460 lung
LOX IMVI melanoma = system: LOX IMVI melanoma
UACC-62 melanoma = system: UACC-62 melanoma
MDA-MB-435 = system: MDA-MB-435
BT-549 breast = system: BT-549 breast
SK-MEL-2 melanoma = system: SK-MEL-2 melanoma
OVCAR-3 ovarian = system: OVCAR-3 ovarian
A549 NSCLC = system: A549 NSCLC
SF-295 CNS = system: SF-295 CNS
OVCAR-8 ovarian = system: OVCAR-8 ovarian
UACC-257 melanoma = system: UACC-257 melanoma
TK-10 renal = system: TK-10 renal
ACHN renal = system: ACHN renal
M14 melanoma = system: M14 melanoma
SK-MEL-28 melanoma = system: SK-MEL-28 melanoma
CCRF-CEM leukemia = system: CCRF-CEM leukemia
HL-60(TB) leukemia = system: HL-60(TB) leukemia
NCI/ADR-RES ovarian = system: NCI/ADR-RES ovarian
SNB-75 CNS = system: SNB-75 CNS
RXF 393 renal = system: RXF 393 renal
NCI-H23 lung = system: NCI-H23 lung

## O=C(CCCBr)Nc1ccccc1C#C/C=C\C#Cc1ccccc1C(F)(F)F
A498 renal
  GI50: 15.8 µM
  TGI: 47.3 µM
MALME-3M melanoma
  GI50: 18.7 µM
  TGI: > 50 µM
HS 578T breast
  GI50: 36.5 µM
  TGI: > 50 µM
MCF7 breast
  GI50: 26.6 µM
  TGI: > 50 µM
NCI-H226 lung
  GI50: 13.9 µM
  TGI: 44.8 µM
HOP-62 NSCLC
  GI50: 4.76 µM
  TGI: 20.6 µM
T-47D breast
  GI50: > 50 µM
  TGI: > 50 µM
PC-3 prostate
  GI50: 23.1 µM
  TGI: > 50 µM
HCT-15 colon
  GI50: 20.6 µM
  TGI: > 50 µM
OVCAR-4 ovarian
  GI50: 10.1 µM
  TGI: 31.9 µM
SK-OV-3 ovarian
  GI50: > 50 µM
  TGI: > 50 µM
RPMI-8226 leukemia
  GI50: 14.2 µM
  TGI: > 50 µM
DU-145 prostate
  GI50: > 50 µM
  TGI: > 50 µM
786-0 renal
  GI50: 13.5 µM
  TGI: > 50 µM
KM12 colon
  GI50: 17.4 µM
  TGI: > 50 µM
EKVX NSCLC
  GI50: 39.1 µM
  TGI: > 50 µM
HCC-2998 colon
  GI50: 7.25 µM
  TGI: 20.3 µM
MOLT-4 leukemia
  GI50: 16.3 µM
  TGI: > 50 µM
HT29 colon
  GI50: 8.56 µM
  TGI: 20.8 µM
COLO 205 colon
  GI50: > 50 µM
  TGI: > 50 µM
HCT-116 colon
  GI50: 10.9 µM
  TGI: 43.7 µM
UO-31 renal
  GI50: 20.2 µM
  TGI: > 50 µM
SF-268 CNS
  GI50: 35.3 µM
  TGI: > 50 µM
K-562 leukemia
  GI50: 21.6 µM
  TGI: > 50 µM
NCI-H522 lung
  GI50: 15.5 µM
  TGI: > 50 µM
U251 CNS
  GI50: 11.3 µM
  TGI: 31.1 µM
SN12C renal
  GI50: 10.6 µM
  TGI: 29.9 µM
SK-MEL-5 melanoma
  GI50: 38.3 µM
  TGI: > 50 µM
OVCAR-5 ovarian
  GI50: > 50 µM
  TGI: > 50 µM
SF-539 CNS
  GI50: 21.2 µM
  TGI: > 50 µM
IGROV1 ovarian
  GI50: 6.75 µM
  TGI: 26.9 µM
HOP-92 NSCLC
  GI50: 19.7 µM
  TGI: > 50 µM
CAKI-1 renal
  GI50: 15.3 µM
  TGI: > 50 µM
MDA-MB-231 breast
  GI50: 12.8 µM
  TGI: 33.4 µM
SW-620 colon
  GI50: 22.5 µM
  TGI: > 50 µM
SNB-19 CNS
  GI50: > 50 µM
  TGI: > 50 µM
NCI-H460 lung
  GI50: 19.2 µM
  TGI: > 50 µM
LOX IMVI melanoma
  GI50: 22.6 µM
  TGI: > 50 µM
UACC-62 melanoma
  GI50: 14.1 µM
  TGI: > 50 µM
MDA-MB-435
  GI50: 13.5 µM
  TGI: 32.6 µM
BT-549 breast
  GI50: 19.8 µM
  TGI: > 50 µM
SK-MEL-2 melanoma
  GI50: 27.8 µM
  TGI: > 50 µM
OVCAR-3 ovarian
  GI50: 13.3 µM
  TGI: 48.9 µM
A549 NSCLC
  GI50: 19.3 µM
  TGI: > 50 µM
SF-295 CNS
  GI50: 27.6 µM
  TGI: > 50 µM
OVCAR-8 ovarian
  GI50: 24.2 µM
  TGI: > 50 µM
UACC-257 melanoma
  GI50: 19.1 µM
  TGI: > 50 µM
TK-10 renal
  GI50: 38.8 µM
  TGI: > 50 µM
ACHN renal
  GI50: 26.8 µM
  TGI: > 50 µM
M14 melanoma
  GI50: 12.1 µM
  TGI: 29.5 µM
SK-MEL-28 melanoma
  GI50: 10.3 µM
  TGI: 25.7 µM
CCRF-CEM leukemia
  GI50: 15 µM
  TGI: 35.7 µM
HL-60(TB) leukemia
  GI50: 16.1 µM
  TGI: 45 µM
NCI/ADR-RES ovarian
  GI50: 11.9 µM
  TGI: 29.2 µM
SNB-75 CNS
  GI50: 9.07 µM
  TGI: 40.6 µM
RXF 393 renal
  GI50: 8.35 µM
  TGI: 28.4 µM
NCI-H23 lung
  GI50: 16.2 µM
  TGI: > 50 µM

## CN(C)CCNc1c2c(c(NCCN(C)C)c3c(CN(C)C)c[nH]c13)C(=O)c1ccccc1C2=O
A498 renal
  GI50: 18.7 µM
  TGI: 33.6 µM
MALME-3M melanoma
  GI50: 6.5 µM
  TGI: 15.7 µM
HS 578T breast
  GI50: 7.49 µM
  TGI: 19 µM
MCF7 breast
  GI50: 1.81 µM
  TGI: 10 µM
NCI-H226 lung
  GI50: 15 µM
  TGI: 35.5 µM
HOP-62 NSCLC
  GI50: 0.946 µM
  TGI: 11.9 µM
T-47D breast
  GI50: 22.3 µM
  TGI: 46.8 µM
PC-3 prostate
  GI50: 0.612 µM
  TGI: 3.2 µM
HCT-15 colon
  GI50: 1.35 µM
  TGI: 6.98 µM
OVCAR-4 ovarian
  GI50: 8.23 µM
  TGI: 34.1 µM
SK-OV-3 ovarian
  GI50: 17.4 µM
  TGI: 40.2 µM
RPMI-8226 leukemia
  GI50: 0.545 µM
  TGI: 2.26 µM
DU-145 prostate
  GI50: 4.2 µM
  TGI: 15.1 µM
786-0 renal
  GI50: 0.356 µM
  TGI: 8.91 µM
KM12 colon
  GI50: 1.6 µM
  TGI: 7.3 µM
EKVX NSCLC
  GI50: 4.31 µM
  TGI: 17.3 µM
HCC-2998 colon
  GI50: 2.14 µM
  TGI: 8.61 µM
MOLT-4 leukemia
  GI50: 0.582 µM
  TGI: > 38.1 µM
HT29 colon
  GI50: 2.56 µM
  TGI: 27.4 µM
COLO 205 colon
  GI50: 13.6 µM
  TGI: > 53.8 µM
HCT-116 colon
  GI50: 0.676 µM
  TGI: > 100 µM
UO-31 renal
  GI50: 3.76 µM
  TGI: 16.8 µM
SF-268 CNS
  GI50: 5.39 µM
  TGI: 22.1 µM
K-562 leukemia
  GI50: 2.59 µM
  TGI: 14.6 µM
NCI-H522 lung
  GI50: 3.39 µM
  TGI: 18.7 µM
U251 CNS
  GI50: 2.57 µM
  TGI: 10.4 µM
SN12C renal
  GI50: 1.18 µM
  TGI: 7.32 µM
SK-MEL-5 melanoma
  GI50: 5.65 µM
  TGI: 10.6 µM
OVCAR-5 ovarian
  GI50: 16 µM
  TGI: 34.6 µM
SF-539 CNS
  GI50: 3.85 µM
  TGI: 10.2 µM
IGROV1 ovarian
  GI50: 2.22 µM
  TGI: 11.7 µM
HOP-92 NSCLC
  GI50: 2.91 µM
  TGI: 15.8 µM
CAKI-1 renal
  GI50: 4.73 µM
  TGI: 11.5 µM
MDA-MB-231 breast
  GI50: 1.61 µM
  TGI: 9.39 µM
SW-620 colon
  GI50: 2.7 µM
  TGI: 9.72 µM
SNB-19 CNS
  GI50: 16.1 µM
  TGI: 40 µM
NCI-H460 lung
  GI50: 2.2 µM
  TGI: 9.49 µM
LOX IMVI melanoma
  GI50: 1.05 µM
  TGI: 2.73 µM
UACC-62 melanoma
  GI50: 14.7 µM
  TGI: 29.9 µM
MDA-MB-435
  GI50: 2.75 µM
  TGI: 8.04 µM
BT-549 breast
  GI50: 18.2 µM
  TGI: 36.9 µM
SK-MEL-2 melanoma
  GI50: 18.3 µM
  TGI: 42.9 µM
OVCAR-3 ovarian
  GI50: 4.29 µM
  TGI: 23.9 µM
A549 NSCLC
  GI50: 2.88 µM
  TGI: 9.98 µM
SF-295 CNS
  GI50: 3.14 µM
  TGI: 9.83 µM
OVCAR-8 ovarian
  GI50: 2.16 µM
  TGI: 14.2 µM
UACC-257 melanoma
  GI50: 9.15 µM
  TGI: > 27.4 µM
TK-10 renal
  GI50: 2.08 µM
  TGI: 7.06 µM
ACHN renal
  GI50: 1.15 µM
  TGI: 5.88 µM
M14 melanoma
  GI50: 2.48 µM
  TGI: 7.57 µM
SK-MEL-28 melanoma
  GI50: 16.7 µM
  TGI: 38.2 µM
CCRF-CEM leukemia
  GI50: 0.639 µM
  TGI: 2.58 µM
HL-60(TB) leukemia
  GI50: 3.02 µM
  TGI: 7.48 µM
NCI/ADR-RES ovarian
  GI50: 4.53 µM
  TGI: 20.5 µM
SNB-75 CNS
  GI50: 19.2 µM
  TGI: 40.9 µM
RXF 393 renal
  GI50: 3.71 µM
  TGI: 19.5 µM
NCI-H23 lung
  GI50: 3.91 µM
  TGI: 14.6 µM

Reference: PubChem BioAssay (NCI)
